According to PubChem BioAssay (NCI):
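In this assay, cells in 96-well plates receive the compound at five concentrations for 48 hours. Endpoints are linearly interpolated between the surrounding concentrations. TGI: total growth inhibition.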

Assays:
Assay in all cases: inhibition of tumour cell growth, NCI panel, 48 h
HOP-92 NSCLC = test system: HOP-92 NSCLC
OVCAR-5 ovarian = test system: OVCAR-5 ovarian
OVCAR-8 ovarian = test system: OVCAR-8 ovarian
TK-10 renal = test system: TK-10 renal
SF-295 CNS = test system: SF-295 CNS
HL-60(TB) leukemia = test system: HL-60(TB) leukemia
NCI-H522 lung = test system: NCI-H522 lung
A498 renal = test system: A498 renal
SNB-75 CNS = test system: SNB-75 CNS
DU-145 prostate = test system: DU-145 prostate
U251 CNS = test system: U251 CNS
SF-539 CNS = test system: SF-539 CNS
ACHN renal = test system: ACHN renal
HT29 colon = test system: HT29 colon
HOP-62 NSCLC = test system: HOP-62 NSCLC
CCRF-CEM leukemia = test system: CCRF-CEM leukemia
MDA-N = test system: MDA-N
SK-OV-3 ovarian = test system: SK-OV-3 ovarian
UO-31 renal = test system: UO-31 renal
HCC-2998 colon = test system: HCC-2998 colon

SMILES	TGI (HOP-92 NSCLC) [µM]	TGI (OVCAR-5 ovarian) [µM]	TGI (OVCAR-8 ovarian) [µM]	TGI (TK-10 renal) [µM]	TGI (SF-295 CNS) [µM]	TGI (HL-60(TB) leukemia) [µM]	TGI (NCI-H522 lung) [µM]	TGI (A498 renal) [µM]	TGI (SNB-75 CNS) [µM]	TGI (DU-145 prostate) [µM]	TGI (U251 CNS) [µM]	TGI (SF-539 CNS) [µM]	TGI (ACHN renal) [µM]	TGI (HT29 colon) [µM]	TGI (HOP-62 NSCLC) [µM]	TGI (CCRF-CEM leukemia) [µM]	TGI (MDA-N) [µM]	TGI (SK-OV-3 ovarian) [µM]	TGI (UO-31 renal) [µM]	TGI (HCC-2998 colon) [µM]
C[C@@H](NC(=O)Cn1c(Cl)nc2ccccc21)c1ccccc1	> 100	> 100	> 100	> 100	> 100	> 100	> 100	> 100	> 100	> 100	> 100	> 100	> 100	> 100	> 100	> 100	> 100	> 100	> 100	> 100
CC(NP(=O)(c1ccccc1)c1ccccc1)c1ccccc1 (stereo not given)	> 100	> 100	> 100	> 100	> 100	> 100	> 100	> 100	> 100	> 100	> 100	> 100	> 100	> 100	> 100	> 100	> 100	> 100	> 100	> 100
COc1ccc2cc(CN3CCC(C4CCN(Cc5ccc6cc(OC)ccc6c5)CC4)CC3)ccc2c1	8.91	> 76.7	19.4	6.18	7.57	4.31	6.56	22.2	11	41.6	8.41	> 100	21.7	6.64	22.7	4.33	4.06	> 72.8	9.78	0.367
COc1ccc2c(C)cc(N/N=C/c3ccc(C)s3)nc2c1	> 51.6	30.2	51.5	> 54.3	26.8	> 56.2	> 100	52.9	> 83.9	23.9	> 48	36.5	> 52.4	16.7	56.9	> 93.7	> 62.7	43.6	35.4	19.6
